Test results from patent US20260125426A1, “CYCLIC CELL-PENETRATING PEPTIDES AND USES THEREOF” (Ohio State Innovation Foundation, priority 2022, published 2026).
Several values for one entry are separate records, joined by “and”; a condition that tells them apart may be missing. Equal values may be shown once. *1 amine or outer side, *2 acyl side, *3 side chain or, on linkers, in order; H or OH if unused. Bridges are numbered along the chain shown (N, C = ends). Bi = bismuth bicyclization of the Cys thiols (peptides reacted with BiBr3), [Bi]([*:1])([*:2])[*:3]; Lys(NF) = lysine with naphthofluorescein (NF) attached to its side chain; Lys(dye) = not defined here; AEEA = NCCOCCOCC(=O)O

The molecules below were run on HeLa cells (assay: Flow cytometry of HeLa cells, cytosolic entry of NF-labeled peptides). Details: 2 μM NF-labeled peptide, 2 h, 37° C., 1% FBS, relative to CPP12 (100%).
Assay type: cell-based
Protocol: (§1) Flow cytometry. HeLa cells were cultured in 12-well plates (1.5×10^5 cells/well) overnight. The following day, cells were incubated with 5 μM fluorescently labeled peptide for 2 h in DMEM supplemented with 1% FBS and 1% antibiotic solution. DMSO was used as a negative control. After incubation, cells were detached from plate with 350 μL of 0.25% Trypsin-EDTA solution, diluted with Dulbecco's phosphate buffered saline (DPBS), and pelleted at 300 g for 5 min. Cells were washed twice with DPBS, resuspended in DPBS, and analyzed on a BD FACS LSR II flow cytometer.
(§2) To evaluate their cell entry efficiencies, the BCPs and pBCPs were labeled with tetramethylrhodamine (TMR) or naphthofluorescein (NF) on a C-terminal lysine residue (FIGS. 2A, 2B, and 4). […] The labeled peptides were purified again by reversed-phase HPLC and their authenticity was confirmed by high-resolution mass spectrometry.
(§3) HeLa cells were treated with 5 μM dye-labeled BCPs (or pBCPs), CPP12, Tat, or DMSO (equal volume) for 2 h at 37° C., washed to remove any peptides in the medium, and analyzed by flow cytometry. The mean fluorescence intensity (MFI) value of TMR (which is pH insensitive) reflects the total amount of CPP inside the HeLa cells (total cellular uptake). On the other hand, NF is a pH sensitive dye, having an apparent pKa of 7.8. NF is unprotonated and fluorescent inside the neutral environment of the cytosol (and nucleus) but is nearly completely protonated and nonfluorescent in the acidic environments of endosomes and lysosomes. Thus, the MFI value of NF provides a convenient estimate of the peptides that have reached the cytosol.
Note that cell entry assays were performed by treating HeLa cell with 2 μM naphthofluorescein (NF)-labeled peptide for 2 h at 37° C. Under this condition, the BCPs enter the cell almost exclusively by endocytosis and endosomal escape. A small fraction of the CPP12^NF-treated cells (˜10%) underwent direct translocation of CPP12^NF; this fraction of highly fluorescent cells was not included in the data analysis. The cellular entry of pBCP427-4 was confirmed by live-cell confocal microscopy (FIG. 6).
BCP16a, BCP16b, and pBCP427-4a were labeled with NF and their cytosolic entry efficiencies were assessed by flow cytometry analysis of HeLa cells after treatment with 2 μM peptide at 37° C. for 2 h. […] CPP12 was previously shown to be highly sensitive to serum proteins (Buyanova, M., et al., (2022). Discovery of a Cyclic Cell-Penetrating Peptide with Improved Endosomal Escape and Cytosolic Delivery Efficiency. Molecular pharmaceuties, 19 (5). 1378-1388).

Molecule | MFI^NF (Cytosolic Entry)
CC(=O)N[C@@H](C)C(=O)N[C@@H](Cc1c[nH]c2ccccc12)C(=O)N[C@@H](CO)C(=O)N[C@@H](CC(N)=O)C(=O)N[C@@H](Cc1c[nH]c2ccccc12)C(=O)N[C@@H](Cc1ccccc1)C(=O)N[C@@H](C)C(=O)N[C@@H](Cc1ccccc1)C(=O)N[C@@H](CCC(N)=O)C(=O)N[C@@H](CCCNC(=N)N)C(=O)N[C@@H](CCCNC(=N)N)C(=O)N[C@@H](C)C(=O)NCCOCCOCC(=O)N[C@@H](CCCCNC(=O)c1ccc2c(c1)C(=O)OC21c2ccc3cc(O)ccc3c2Oc2c1ccc1cc(O)ccc21)C(N)=O [pBCP427-4Ala] | 18% and 18 ± 2%
Ac-CRRRφCF(dNle)QWC [BCP9A5-2] | 43 ± 2%
Ac-CRRRφRFCQWC [BCP9A5-1] | 30 ± 1%
Ac-CWSNWCFQRRC (Ac-CWSNWCFQRRC-{AEEA-Lys(NF)-NH2}; linker 1-6-11 via Bi (inferred)) [pBCP427-5] | 76 ± 1%
Ac-CWSNWFCFQRRCR (Ac-CWSNWFCFQRRCR-{AEEA-Lys(NF)-NH2}; linker 1-7-12 via Bi (inferred)) [pBCP427-3] | 101 ± 3%
Ac-CWSNWFCFQRRCRR (Ac-CWSNWFCFQRRCRR-{AEEA-Lys(NF)-NH2}; linker 1-7-12 via Bi (inferred)) [pBCP427-2] | 45 ± 1%
Ac-CWSNWFCFQRRCRRF (Ac-CWSNWFCFQRRCRRF-{AEEA-Lys(NF)-NH2}; linker 1-7-12 via Bi (inferred)) [pBCP427-1] | 94 ± 22%
Ac-CWSNWFCQRRC (Ac-CWSNWFCQRRC-{AEEA-Lys(NF)-NH2}; linker 1-7-11 via Bi (inferred)) [pBCP427-6] | 65 ± 1%
Ac-CWSQWFCFQRRC (Ac-CWSQWFCFQRRC-{AEEA-Lys(NF)-NH2}; linker 1-7-12 via Bi (inferred)) [pBCP427-7] | 69 ± 3%
Ac-CrRrRCΦfC [BCP4] | 51 ± 16%
CWSNWFCFQRRCRRFA (Ac-CWSNWFCFQRRCRRFA-{AEEA-Lys(dye)-NH2}; linker 1-7-12 via Bi (inferred); reading uncertain) [pBCP427] | 131 ± 1%
HS-CH2-CO-rRrRC(Bta)φC [BCP15] | 108 ± 4%
HS-CH2-CO-rRrRCΦφC [BCP14] | 86 ± 2%
HS-CH2-CO-rRrRCφ(Bta)φC [BCP16b] | 98% and 98 ± 1%
HS-CH2-CO-rRrRcΦ(Bta)φC [BCP16a] | 156% and 156 ± 4%
HS-CH2-CO-φSNφFCfQrRC [BCP427-2] | 118 ± 4%
HS-CH2-CO-φSNφFCfQrRCRrFa [BCP427-1] | 84 ± 2%

Same assay, conditions: 2 μM NF-labeled peptide, 2 h, 37° C., 10% FBS, relative to CPP12

Molecule | cytosolic entry efficiency in the presence of 10% FBS [%]
HS-CH2-CO-rRrRCφ(Bta)φC [BCP16b] | 169
HS-CH2-CO-rRrRcΦ(Bta)φC [BCP16a] | 821

Same assay, conditions: 5 μM

Molecule | cytosolic entry, fold less active than CPP12 [fold] | cytosolic entry, fold more active than Tat [fold]
CWYWRRCRAC (Ac-CWYWRRCRAC-{AEEA-Lys(dye)-NH2}; linker 1-7-10 via Bi (inferred); reading uncertain) [pBCP10] | 6 | 5

Same assay, conditions: 5 μM NF-labeled peptide, 2 h, 37° C., relative to CPP12 (100%)

Molecule | MFI^NF (Cytosolic Entry)
AWYRRARAA [pBCP4a, linear variant of pBCP4, three cysteine residues replaced with Ala] | 5.4%
Ac-CFΦRRCrrC [BCP8] | 38 ± 1%
Ac-CFΦRRRRCAAAC [BCP11] | 13%
Ac-CFΦRrRCAAC [BCP13] | 30 ± 3%
Ac-CfΦRrCRrC [BCP10] | 56 ± 32%
Ac-CrRrRCΦfC [BCP4] | 51 ± 16%
Ac-CrRrRCΦfFC [BCP5] | 45 ± 1%
Ac-CΣΦRRCrrC [BCP9] | 43%
CFFFRRRCRAC (Ac-CFFFRRRCRAC-{AEEA-Lys(dye)-NH2}; linker 1-8-11 via Bi (inferred); reading uncertain) [pBCP17] | 15 ± 1%
CFFRRRCRAC (Ac-CFFRRRCRAC-{AEEA-Lys(dye)-NH2}; linker 1-7-10 via Bi (inferred); reading uncertain) [pBCP16] | 15 ± 1%
CRRRRCWYWC (Ac-CRRRRCWYWC-{AEEA-Lys(dye)-NH2}; linker 1-6-10 via Bi (inferred); reading uncertain) [pBCP1] | 12 ± 4%
CWSNWFCFQRRCRRFA (Ac-CWSNWFCFQRRCRRFA-{AEEA-Lys(dye)-NH2}; linker 1-7-12 via Bi (inferred); reading uncertain) [pBCP427] | 41% and 41 ± 5%
CWYCRRRC (Ac-CWYCRRRC-{AEEA-Lys(dye)-NH2}; linker 1-4-8 via Bi (inferred); reading uncertain) [pBCP11] | 14 ± 1%
CWYRCRRC (Ac-CWYRCRRC-{AEEA-Lys(dye)-NH2}; linker 1-5-8 via Bi (inferred); reading uncertain) [pBCP13] | 11 ± 1%
CWYRRCRAC (Ac-CWYRRCRAC-{AEEA-Lys(dye)-NH2}; linker 1-6-9 via Bi (inferred); reading uncertain) [pBCP4] | 10 ± 4%
CWYRRRCAC (Ac-CWYRRRCAC-{AEEA-Lys(dye)-NH2}; linker 1-7-9 via Bi (inferred); reading uncertain) [pBCP12] | 12 ± 1%
CWYRRRCRAC (Ac-CWYRRRCRAC-{AEEA-Lys(dye)-NH2}; linker 1-7-10 via Bi (inferred); reading uncertain) [pBCP9] | 12 ± 4%
CWYWRRCRAC (Ac-CWYWRRCRAC-{AEEA-Lys(dye)-NH2}; linker 1-7-10 via Bi (inferred); reading uncertain) [pBCP10] | 17% and 17 ± 2%
CYYRRCRAC (Ac-CYYRRCRAC-{AEEA-Lys(dye)-NH2}; linker 1-6-9 via Bi (inferred); reading uncertain) [pBCP15] | 16 ± 3%

Same assay, conditions: 5 μM, linear Ala variant vs cyclized peptide

Molecule | cytosolic entry, fold less active than pBCP4 [fold]
AWYRRARAA [pBCP4a, linear variant of pBCP4, three cysteine residues replaced with Ala] | ~2

Each molecule was assayed on HeLa cells (assay: Flow cytometry of HeLa cells, total cellular uptake of TMR-labeled peptides). Details: 5 μM TMR-labeled peptide, 2 h, 37° C., relative to CPP12 (100%).
Assay type: cell-based
Protocol: as §1, §2, §3

Molecule | MFI^TMR (Total Cellular Uptake) [%]
Ac-CFΦCRRRRC [BCP1] | 12 ± 2
Ac-CFΦRRCRRC [BCP3] | 13 ± 2
Ac-CRRRRCΦFC [BCP2] | 15 ± 4
CARCRRRWYWC (Ac-CARCRRRWYWC-{AEEA-Lys(dye)-NH2}; linker 1-4-11 via Bi (inferred); reading uncertain) [pBCP3] | 3
CARCRRYWC (Ac-CARCRRYWC-{AEEA-Lys(dye)-NH2}; linker 1-4-9 via Bi (inferred); reading uncertain) [pBCP5] | 9.2
CFWRCRRC (Ac-CFWRCRRC-{AEEA-Lys(dye)-NH2}; linker 1-5-8 via Bi (inferred); reading uncertain) [pBCP6] | 9.0 ± 0.7
CRRCRWFC (Ac-CRRCRWFC-{AEEA-Lys(dye)-NH2}; linker 1-4-8 via Bi (inferred); reading uncertain) [pBCP7] | 10 ± 0.1
CRRRRCWYWC (Ac-CRRRRCWYWC-{AEEA-Lys(dye)-NH2}; linker 1-6-10 via Bi (inferred); reading uncertain) [pBCP1] | 9.3 ± 1.9
CRRRWYWCAAC (Ac-CRRRWYWCAAC-{AEEA-Lys(dye)-NH2}; linker 1-8-11 via Bi (inferred); reading uncertain) [pBCP8] | 8.4
CWYRRCRAC (Ac-CWYRRCRAC-{AEEA-Lys(dye)-NH2}; linker 1-6-9 via Bi (inferred); reading uncertain) [pBCP4] | 11 ± 1
